± gives the expanded uncertainty stated by the source.
How the values were obtained:
[1] = 298.15 K; 101.33 kPa; Liquid; Pycnometric method
[2] = refractive index (Na D-line) (dimensionless); conditions: 298.15 K; 101.33 kPa; Liquid; Standard Abbe refractometry

mass density [1]: 1052.25 ± 1.1 kg/m3 | refractive index [2]: 1.4712 ± 0.0008
Compound: CN1CCN(C)C1=O [1,3-dimethyl-2-imidazolidinone]
